Experimental data as given in patent US9439975B2, “Small efficient cell penetrating peptides derived from the scorpion toxin maurocalcine” (Commissariat A L'Energie Atomique Et Aux Energies …, priority 2011, dated 2016).
Square brackets hold non-standard residues; d marks the D form. Ends that are not written are not given here. Abu = CC[C@H](N)C(=O)O

Assays:
CHO cells = test: MTT assay of cell viability; assay type: cell-based, Chinese hamster; details: 1 or 10 μM peptide, 24 hrs
Protocol: Cells were seeded into 96-well micro plates at a density of approximately 8×10^4 cells/well. […] Control wells containing cell culture medium alone or with cells, both without peptide addition, were included in each experiment. 0.1% saponin was used as toxic agent for comparison. The cells were then incubated with 3-(4, 5-dimethylthiazol-2-yl)-2, 5-diphenyl-tetrazolium bromide (MTT) for 30 min. Conversion of MTT into purple colored MTT formazan by the living cells indicates the extent of cell viability. The crystals were dissolved with dimethyl sulfoxide (DMSO) and the optical density was measured at 540 nm using a microplate reader (Biotek ELx-800, MANDEL SCIENTIFIC INC.) for quantification of cell viability. All assays were run in triplicates.

[1] = molecular target: ryanodine receptor type 1 (RyR1) (Oryctolagus cuniculus, UniProt P11716); details: earlier reports; cited from earlier work
cells = details: earlier reports; cited from earlier work
proteoglycans = details: cited from earlier work
[2] = upon intravenous injection; cited from earlier work
[3] = in vitro and in vivo; cited from earlier work

Sequence of ryanodine receptor type 1 (RyR1) (P11716 whole entry): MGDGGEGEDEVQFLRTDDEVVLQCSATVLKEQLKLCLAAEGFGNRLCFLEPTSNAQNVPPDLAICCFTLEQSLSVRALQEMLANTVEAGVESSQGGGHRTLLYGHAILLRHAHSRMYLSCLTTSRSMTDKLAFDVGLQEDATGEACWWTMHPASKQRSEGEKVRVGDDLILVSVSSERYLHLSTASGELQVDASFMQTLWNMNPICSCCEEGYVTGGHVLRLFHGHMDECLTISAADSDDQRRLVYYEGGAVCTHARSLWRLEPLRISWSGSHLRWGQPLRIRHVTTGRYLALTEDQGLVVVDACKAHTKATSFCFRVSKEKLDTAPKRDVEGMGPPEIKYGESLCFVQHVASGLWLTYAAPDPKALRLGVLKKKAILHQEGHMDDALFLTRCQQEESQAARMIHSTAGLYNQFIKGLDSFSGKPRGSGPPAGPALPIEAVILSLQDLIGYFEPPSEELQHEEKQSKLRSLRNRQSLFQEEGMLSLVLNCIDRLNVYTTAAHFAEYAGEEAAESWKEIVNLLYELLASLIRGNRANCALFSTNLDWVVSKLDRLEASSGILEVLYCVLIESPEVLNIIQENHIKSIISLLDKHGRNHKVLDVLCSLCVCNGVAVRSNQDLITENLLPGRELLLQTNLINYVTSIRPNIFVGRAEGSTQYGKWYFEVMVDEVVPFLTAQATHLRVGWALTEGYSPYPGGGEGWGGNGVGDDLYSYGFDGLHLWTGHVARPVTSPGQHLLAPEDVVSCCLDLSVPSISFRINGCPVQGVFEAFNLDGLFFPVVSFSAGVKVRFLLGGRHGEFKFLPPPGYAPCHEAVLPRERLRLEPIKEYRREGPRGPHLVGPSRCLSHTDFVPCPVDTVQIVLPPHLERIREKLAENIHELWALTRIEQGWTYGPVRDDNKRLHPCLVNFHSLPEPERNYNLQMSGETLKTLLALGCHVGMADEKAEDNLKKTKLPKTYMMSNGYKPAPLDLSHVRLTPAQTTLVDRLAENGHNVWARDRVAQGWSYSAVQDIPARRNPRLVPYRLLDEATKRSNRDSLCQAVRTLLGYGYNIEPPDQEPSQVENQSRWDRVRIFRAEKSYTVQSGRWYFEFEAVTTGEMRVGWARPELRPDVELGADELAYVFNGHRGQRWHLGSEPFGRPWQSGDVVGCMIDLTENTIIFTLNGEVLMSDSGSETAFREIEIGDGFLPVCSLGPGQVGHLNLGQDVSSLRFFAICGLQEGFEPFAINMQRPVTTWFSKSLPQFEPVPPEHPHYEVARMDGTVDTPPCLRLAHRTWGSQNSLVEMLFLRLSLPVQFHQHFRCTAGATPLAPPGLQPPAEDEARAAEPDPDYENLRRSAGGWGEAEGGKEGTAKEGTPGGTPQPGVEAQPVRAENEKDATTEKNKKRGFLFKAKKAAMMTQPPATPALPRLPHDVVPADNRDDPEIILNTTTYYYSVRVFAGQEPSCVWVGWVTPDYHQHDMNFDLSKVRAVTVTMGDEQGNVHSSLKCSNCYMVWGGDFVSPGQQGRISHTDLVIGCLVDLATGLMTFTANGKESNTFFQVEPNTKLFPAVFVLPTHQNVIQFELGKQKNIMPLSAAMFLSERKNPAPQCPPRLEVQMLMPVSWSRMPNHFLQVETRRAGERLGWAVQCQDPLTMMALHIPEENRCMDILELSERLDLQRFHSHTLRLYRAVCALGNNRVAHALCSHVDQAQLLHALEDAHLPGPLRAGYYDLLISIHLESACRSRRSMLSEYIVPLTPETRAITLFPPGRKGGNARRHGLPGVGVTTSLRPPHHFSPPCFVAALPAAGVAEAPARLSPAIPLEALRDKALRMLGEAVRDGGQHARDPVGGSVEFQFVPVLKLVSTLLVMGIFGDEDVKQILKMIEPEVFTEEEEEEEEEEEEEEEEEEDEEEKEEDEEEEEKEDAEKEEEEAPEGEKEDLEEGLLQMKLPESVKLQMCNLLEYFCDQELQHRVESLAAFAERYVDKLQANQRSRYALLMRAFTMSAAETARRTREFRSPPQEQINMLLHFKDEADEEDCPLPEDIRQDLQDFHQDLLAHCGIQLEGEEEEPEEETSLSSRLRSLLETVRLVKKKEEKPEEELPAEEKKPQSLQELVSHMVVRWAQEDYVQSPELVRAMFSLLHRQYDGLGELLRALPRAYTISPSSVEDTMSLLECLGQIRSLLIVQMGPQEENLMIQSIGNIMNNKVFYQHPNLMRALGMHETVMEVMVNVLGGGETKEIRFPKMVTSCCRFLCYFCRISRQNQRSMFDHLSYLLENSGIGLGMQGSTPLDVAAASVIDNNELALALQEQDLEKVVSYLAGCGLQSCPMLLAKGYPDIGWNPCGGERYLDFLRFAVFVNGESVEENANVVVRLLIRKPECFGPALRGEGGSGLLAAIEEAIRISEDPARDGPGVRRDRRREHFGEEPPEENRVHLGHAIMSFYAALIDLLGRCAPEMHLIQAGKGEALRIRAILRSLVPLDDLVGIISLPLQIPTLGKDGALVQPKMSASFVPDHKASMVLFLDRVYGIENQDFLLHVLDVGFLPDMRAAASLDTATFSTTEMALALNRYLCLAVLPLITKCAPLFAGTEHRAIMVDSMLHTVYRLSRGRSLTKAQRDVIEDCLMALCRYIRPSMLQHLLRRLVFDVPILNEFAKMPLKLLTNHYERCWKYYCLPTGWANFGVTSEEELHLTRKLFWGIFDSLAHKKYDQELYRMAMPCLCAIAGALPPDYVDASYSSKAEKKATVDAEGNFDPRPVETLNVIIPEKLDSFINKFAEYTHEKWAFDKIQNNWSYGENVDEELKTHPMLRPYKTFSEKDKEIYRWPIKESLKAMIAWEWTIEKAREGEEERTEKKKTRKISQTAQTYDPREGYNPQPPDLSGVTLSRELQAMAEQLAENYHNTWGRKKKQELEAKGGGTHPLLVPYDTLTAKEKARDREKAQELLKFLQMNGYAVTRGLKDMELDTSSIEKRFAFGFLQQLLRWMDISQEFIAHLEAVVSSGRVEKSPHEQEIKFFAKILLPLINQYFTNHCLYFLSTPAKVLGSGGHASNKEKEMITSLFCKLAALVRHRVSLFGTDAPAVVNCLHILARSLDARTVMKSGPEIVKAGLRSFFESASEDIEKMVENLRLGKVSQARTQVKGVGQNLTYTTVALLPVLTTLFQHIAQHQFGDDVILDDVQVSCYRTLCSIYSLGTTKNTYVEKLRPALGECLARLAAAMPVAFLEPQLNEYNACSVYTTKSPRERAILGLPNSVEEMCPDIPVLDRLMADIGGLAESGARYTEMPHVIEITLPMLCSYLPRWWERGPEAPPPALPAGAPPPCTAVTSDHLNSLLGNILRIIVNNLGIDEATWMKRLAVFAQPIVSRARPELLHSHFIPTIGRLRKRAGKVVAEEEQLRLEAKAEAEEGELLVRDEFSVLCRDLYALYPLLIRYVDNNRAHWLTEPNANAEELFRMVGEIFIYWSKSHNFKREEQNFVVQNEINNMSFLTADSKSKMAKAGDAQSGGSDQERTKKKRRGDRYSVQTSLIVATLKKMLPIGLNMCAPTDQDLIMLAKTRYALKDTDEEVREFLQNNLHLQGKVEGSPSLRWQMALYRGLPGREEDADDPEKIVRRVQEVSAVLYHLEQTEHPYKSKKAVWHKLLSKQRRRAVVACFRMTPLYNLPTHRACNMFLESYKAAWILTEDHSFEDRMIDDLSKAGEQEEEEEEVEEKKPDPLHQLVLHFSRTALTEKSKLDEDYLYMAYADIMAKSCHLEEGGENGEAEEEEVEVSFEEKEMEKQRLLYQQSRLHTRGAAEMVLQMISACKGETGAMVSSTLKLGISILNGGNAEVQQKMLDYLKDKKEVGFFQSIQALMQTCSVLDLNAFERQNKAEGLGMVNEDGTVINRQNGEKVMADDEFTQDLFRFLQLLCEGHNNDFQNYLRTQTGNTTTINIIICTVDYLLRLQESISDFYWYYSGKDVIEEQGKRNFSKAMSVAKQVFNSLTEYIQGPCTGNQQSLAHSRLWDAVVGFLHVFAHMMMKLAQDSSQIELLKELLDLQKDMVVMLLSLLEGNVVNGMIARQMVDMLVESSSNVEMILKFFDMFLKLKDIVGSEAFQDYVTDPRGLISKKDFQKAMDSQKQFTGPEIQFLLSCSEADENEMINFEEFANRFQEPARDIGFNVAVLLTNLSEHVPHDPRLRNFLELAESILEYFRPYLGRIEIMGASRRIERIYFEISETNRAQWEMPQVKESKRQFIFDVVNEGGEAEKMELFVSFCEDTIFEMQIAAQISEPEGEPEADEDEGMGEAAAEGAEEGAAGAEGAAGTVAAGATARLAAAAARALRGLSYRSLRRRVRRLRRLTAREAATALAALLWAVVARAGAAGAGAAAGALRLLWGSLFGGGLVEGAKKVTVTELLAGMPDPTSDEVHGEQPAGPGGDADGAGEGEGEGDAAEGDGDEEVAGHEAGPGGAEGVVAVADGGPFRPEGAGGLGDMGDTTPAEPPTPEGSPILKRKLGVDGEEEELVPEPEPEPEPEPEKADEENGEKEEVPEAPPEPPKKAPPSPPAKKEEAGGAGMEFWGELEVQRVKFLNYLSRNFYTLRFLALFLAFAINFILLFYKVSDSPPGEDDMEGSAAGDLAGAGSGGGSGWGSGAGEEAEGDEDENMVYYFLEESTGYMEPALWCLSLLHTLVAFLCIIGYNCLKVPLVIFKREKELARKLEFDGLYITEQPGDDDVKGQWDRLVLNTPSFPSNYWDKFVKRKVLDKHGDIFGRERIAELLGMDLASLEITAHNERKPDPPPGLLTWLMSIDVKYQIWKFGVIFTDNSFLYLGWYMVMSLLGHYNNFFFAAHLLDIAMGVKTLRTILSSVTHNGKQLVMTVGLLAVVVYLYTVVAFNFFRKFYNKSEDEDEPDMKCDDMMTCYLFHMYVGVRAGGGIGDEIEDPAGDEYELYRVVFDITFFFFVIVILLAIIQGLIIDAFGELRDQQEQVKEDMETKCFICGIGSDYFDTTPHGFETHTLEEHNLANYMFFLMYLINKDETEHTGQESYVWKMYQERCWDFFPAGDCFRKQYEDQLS

Substance	cell toxicity, comparison (CHO cells)	pharmacological action on / interaction with RyR1 [1]	cell penetration efficiency (cells)	affinity of interaction with proteoglycans (proteoglycans)	stability in vivo [2]	associated toxicity [3]
KDaaSKKaKRRGC (KD[Abu][Abu]SKK[Abu]KRRGC) [MCaUF14-25-C]	slightly more toxic than 1 μM except for MCaUF14-25-C	–	–	–	–	–
GDCLPHLKLCKENKDCCSKKCKRRGTNIEKRCR [MCa]	–	exquisite pharmacological activator	penetrates into cells at very low concentrations	micromolar range	over 24 hrs	almost no associated toxicity
